Laboratory results reported in US20240148821A1, “PHARMACEUTICAL USE OF CYCLIC PEPTIDE COMPOUND” (CHUGAI SEIYAKU KABUSHIKI KAISHA, priority 2021, published 2024).
Numbered stars: 1 amine (or outer) side, 2 acyl side, 3 side chain; on linkers, the order of the positions; unused ones are H or OH. Bridge positions count the residues as written; N and C are the ends. Square brackets hold non-standard residues; d marks the D form. Peptide text beside a SMILES is read from it. * marks the point of attachment. hPhe(3,5-F2-4-CF3) = N[C@@H](CCc1cc(F)c(C(F)(F)F)c(F)c1)C(=O)O; hPhe(3-Cl-4-CF3) = N[C@@H](CCc1ccc(C(F)(F)F)c(Cl)c1)C(=O)O; hPhe(3-F,4-CF3) = N[C@@H](CCc1ccc(C(F)(F)F)c(F)c1)C(=O)O; NMePhe(2-CF3) = CN[C@@H](Cc1ccccc1C(F)(F)F)C(=O)O; NMePhe(4-Cl) = CN[C@@H](Cc1ccc(Cl)cc1)C(=O)O; NMePhe(4-Me) = CN[C@@H](Cc1ccc(C)cc1)C(=O)O; NMedβ3hAla = C[C@H](CC(=O)[*:2])N(C)[*:1]; NMeGly(cPent) = CN[C@H](C(=O)O)C1CCCC1; Phe(3-I) = N[C@@H](Cc1cccc(I)c1)C(=O)O; NMeCha = CN[C@@H](CC1CCCCC1)C(=O)O; NMeChg = CN[C@H](C(=O)O)C1CCCCC1; NMeI = CC[C@H](C)[C@H](NC)C(=O)O; NMeD = CN[C@@H](CC(=O)O)C(=O)O; NMeL = CN[C@@H](CC(C)C)C(=O)O; Chg = N[C@H](C(=O)O)C1CCCCC1; NMeNva = CCC[C@H](NC)C(=O)O; NMeV = CN[C@H](C(=O)O)C(C)C; d(β3hA) = C[C@@H](N)CC(=O)O; N(iPr)Gly = CC(C)NCC(=O)O; NMeA = CN[C@@H](C)C(=O)O; NMeAib = CNC(C)(C)C(=O)O; Nle = CCCC[C@H](N)C(=O)O; Piperidide = C1CCN(*)CC1; Pyrrolidide = C1CCN(*)C1; Ac5c = NC1(C(=O)O)CCCC1; Aze = O=C(O)[C@@H]1CCN1; Ac4c = NC1(C(=O)O)CCC1; Sar = CNCC(=O)O

Tested on: Human pancreatic cancer cell line AsPC-1 (G12D mutation Kras)
Assay: AsPC-1 cell growth inhibition (AsPC-1 CGI)
Format: cell-based
Settings: read-out: AsPC-1 cell growth inhibition, 50% growth inhibitory concentration (IC50 value); 96 hours, CellTiter-Glo, values classified in ranges
Protocol: Test compounds were serially dilated with dimethyl sulfoxide, and 200 nL was then dispensed to a U-bottom 96-well plate using Labcyte Echo. […] The cell suspension was dispensed to a. plate containing a test compound at 100 μL per well and incubated at 37° C. in a 5% carbon dioxide gas incubator. 96 hours later, 80 μL of CellTiter-Glo (Promega) was added to each well and fluorescence was measured.

Question: `CC[C@H](C)[C@@H]1NC(=O)[C@H](CC(C)C)N(C)C(=O)C[C@@H](C)N(C)C(=O)[C@H](CC(C)C)NC(=O)C(C)(C)N(C)C(=O)[C@H](C2CCCCC2)NC(=O)[C@H](CCc2ccc(C(F)(F)F)c(F)c2)NC(=O)CN(C)C(=O)[C@H](Cc2ccc(Cl)cc2)N(C)C(=O)CN(C)C(=O)CN(C)C1=O` [Compound 772] (cyclo([Chg][NMeAib]L[NMedβ3hAla][NMeL]I[Sar][Sar][NMePhe(4-Cl)][Sar][hPhe(3-F,4-CF3)])) was tested. Which IC50 did it give?
Answer: The IC50 was > 500 nM.

Question: With `CC[C@H](C)[C@@H]1NC(=O)[C@H](CC(C)C)N(C)C(=O)C[C@@H](C(=O)N(C)C)N(C)C(=O)[C@H]([C@@H](C)CC)N(C)C(=O)[C@H](C(C)C)NC(=O)[C@H](C)N(C)C(=O)[C@H](CCc2ccc(C(F)(F)F)c(Cl)c2)NC(=O)CN(C)C(=O)[C@H](Cc2ccc(C)cc2)N(C)C(=O)[C@@H]2CCN2C(=O)[C@H](C)N(C)C1=O` [Compound 4] ([NMeL]I[NMeA][Aze][NMePhe(4-Me)][Sar][hPhe(3-Cl-4-CF3)][NMeA]V[NMeI][NMeD]-NMe2; lactam N-11) as the compound, how does the IC50 read?
Answer: The IC50 was > 500 nM.

Question: Which IC50 does the source give for `CCCC[C@@H]1NC(=O)[C@H](Cc2cccc(I)c2)NC(=O)CN(C)C(=O)[C@H](Cc2ccc(Cl)cc2)N(C)C(=O)CN(C)C(=O)CN(C)C(=O)[C@H]([C@@H](C)CC)NC(=O)[C@H](CC(C)C)N(C)C(=O)C[C@@H](C(=O)N2CCCCC2)N(C)C(=O)[C@H](CC(C)C)NC(=O)[C@H](Cc2ccccc2C(F)(F)F)N(C)C1=O` [Compound 813] ([NMeL]I[Sar][Sar][NMePhe(4-Cl)][Sar][Phe(3-I)][Nle][NMePhe(2-CF3)]L[NMeD]-Piperidide; lactam N-11) here?
Answer: The IC50 was > 500 nM.

Question: For `CC[C@H](C)[C@@H]1NC(=O)[C@H](CC(C)C)N(C)C(=O)C[C@@H](C(=O)N2CCCC2)N(C)C(=O)[C@H](C2CCCCC2)N(C)C(=O)C2(CCC2)NC(=O)[C@@H]2CCCN2C(=O)[C@H](CCc2cc(F)c(C(F)(F)F)c(F)c2)NC(=O)CN(C)C(=O)[C@H](CC2CCCCC2)N(C)C(=O)CN(C)C(=O)CN(C)C1=O` [Compound 1165] ([NMeL]I[Sar][Sar][NMeCha][Sar][hPhe(3,5-F2-4-CF3)]P[Ac4c][NMeChg][NMeD]-Pyrrolidide; lactam N-11), which IC50 is on record?
Answer: The IC50 was ≤ 20 nM.

Question: With `CC[C@H](C)[C@@H]1NC(=O)[C@H](C)N(C)C(=O)C[C@@H](C)N(C)C(=O)[C@H](CC(C)C)NC(=O)C(C)(C)N(C)C(=O)[C@H](CC(C)C)NC(=O)[C@H](CCc2ccc(C(F)(F)F)c(Cl)c2)NC(=O)CN(C)C(=O)[C@H](Cc2ccc(C)cc2)N(C)C(=O)[C@@H]2CCN2C(=O)CN(C)C1=O` [Compound 1377] (cyclo([Aze][NMePhe(4-Me)][Sar][hPhe(3-Cl-4-CF3)]L[NMeAib]L[NMedβ3hAla][NMeA]I[Sar])) as the compound, how does the IC50 read?
Answer: Its IC50 is > 500 nM.

Question: `CC[C@H](C)[C@@H]1NC(=O)[C@H](CC(C)C)N(C)C(=O)C[C@@H](C)NC(=O)[C@H](C(C)C)N(C)C(=O)C2(CCCC2)NC(=O)[C@@H]2CCCN2C(=O)[C@H](CCc2ccc(C(F)(F)F)c(Cl)c2)NC(=O)CN(C)C(=O)[C@H](CC2CCCCC2)N(C)C(=O)CN(C)C(=O)CN(C(C)C)C1=O` [Compound 305] (cyclo([Ac5c][NMeV][d(β3hA)][NMeL]I[N(iPr)Gly][Sar][NMeCha][Sar][hPhe(3-Cl-4-CF3)]P)) was tested. Which IC50 did it give?
Answer: The IC50 was > 500 nM.

Question: For `CC[C@H](C)[C@@H]1NC(=O)[C@H](CC(C)C)N(C)C(=O)C[C@@H](C(=O)N2CCCCC2)N(C)C(=O)[C@H](CC(C)C)NC(=O)C(C)(C)N(C)C(=O)[C@H](Cc2ccccc2)NC(=O)[C@H](Cc2cccc(I)c2)NC(=O)CN(C)C(=O)[C@H](Cc2ccc(C)cc2)N(C)C(=O)[C@@H]2CCN2C(=O)[C@H](C)N(C)C1=O` [Compound 1015] ([NMeL]I[NMeA][Aze][NMePhe(4-Me)][Sar][Phe(3-I)]F[NMeAib]L[NMeD]-Piperidide; lactam N-11), which IC50 is on record?
Answer: The IC50 was > 500 nM.

Question: `CCC[C@H]1C(=O)N(C)CC(=O)N[C@@H](CCc2ccc(C(F)(F)F)c(Cl)c2)C(=O)N2CCC[C@H]2C(=O)NC2(CCCC2)C(=O)N(C)[C@@H](C2CCCCC2)C(=O)N(C)[C@H](C(=O)N2CCCCC2)CC(=O)N(C)[C@@H](CC(C)C)C(=O)N[C@@H]([C@@H](C)CC)C(=O)N(C)CC(=O)N(C)CC(=O)N1C` [Compound 187] ([NMeL]I[Sar][Sar][NMeNva][Sar][hPhe(3-Cl-4-CF3)]P[Ac5c][NMeChg][NMeD]-Piperidide; lactam N-11) was tested. Which IC50 did it give?
Answer: The IC50 was > 500 nM.

Question: For `CC[C@H](C)[C@@H]1NC(=O)[C@H](CC(C)C)N(C)C(=O)C[C@@H](C(=O)N(C)C)N(C)C(=O)[C@H](C2CCCC2)N(C)C(=O)C2(CCCC2)NC(=O)[C@H](Cc2ccc(Cl)cc2)N(C)C(=O)[C@H](CCc2ccc(C(F)(F)F)c(Cl)c2)NC(=O)CN(C)C(=O)[C@H](CC2CCCCC2)N(C)C(=O)[C@@H]2CCN2C(=O)[C@H](C)N(C)C1=O` [Compound 1063] ([NMeL]I[NMeA][Aze][NMeCha][Sar][hPhe(3-Cl-4-CF3)][NMePhe(4-Cl)][Ac5c][NMeGly(cPent)][NMeD]-NMe2; lactam N-11), which IC50 is on record?
Answer: Its IC50 is > 500 nM.

Question: How did the IC50 turn out when `CC[C@H](C)[C@@H]1NC(=O)[C@H](CC(C)C)N(C)C(=O)C[C@@H](C(=O)N(C)C)N(C)C(=O)[C@H](C2CCCC2)N(C)C(=O)[C@H](C)NC(=O)[C@H](C)N(C)C(=O)[C@H](CCc2ccc(C(F)(F)F)c(Cl)c2)NC(=O)CN(C)C(=O)[C@H](CC2CCCCC2)N(C)C(=O)[C@@H]2CCN2C(=O)[C@H](C)N(C)C1=O` [Compound 993] ([NMeL]I[NMeA][Aze][NMeCha][Sar][hPhe(3-Cl-4-CF3)][NMeA]A[NMeGly(cPent)][NMeD]-NMe2; lactam N-11) was run?
Answer: Its IC50 is > 500 nM.
